Measured values published in ChEMBL document CHEMBL3621068, “Synthesis and biological evaluation of a new class of quinazolinoneazoles as potential antimicrobial agents and their interactions with calf thymus DNA and human serum albumin” (Medchemcomm, 2015).
In brackets after ≈: the same amount, converted by molar mass.

Columns and labels:
Type in all cases: functional
Micrococcus luteus = test: Antibacterial activity against Micrococcus luteus ATCC 4698 after 24 hrs by micro broth dilution assay; conditions: ATCC 4698, 24 h
Aspergillus flavus = test: Antifungal activity against Aspergillus flavus ATCC 204304 after 24 hrs by micro broth dilution assay; conditions: ATCC 204304, 24 h
Bacillus spizizenii = test: Antibacterial activity against Bacillus subtilis ATCC 6633 after 24 hrs by micro broth dilution assay; conditions: ATCC 6633, 24 h
Cyberlindnera jadinii = test: Antifungal activity against Candida utilis ATCC 9950 after 24 hrs by micro broth dilution assay; conditions: Williopsis jadinii, ATCC 9950, 24 h
Staphylococcus aureus [1] = test: Antibacterial activity against methicillin-resistant Staphylococcus aureus N315 after 24 hrs by micro broth dilution assay; conditions: N315, 24 h
Pseudomonas aeruginosa = test: Antibacterial activity against Pseudomonas aeruginosa ATCC 27853 a after 24 hrs by micro broth dilution assay; conditions: ATCC 27853, 24 h
Candida albicans = test: Antifungal activity against Candida albicans ATCC 10231 after 24 hrs by micro broth dilution assay; conditions: ATCC 10231, 24 h
[2] = Antibacterial activity against Eberthella typhosa ATCC 14028 after 24 hrs by micro broth dilution assay; conditions: ATCC 14028, 24 h
Staphylococcus aureus [3] = test: Antibacterial activity against Staphylococcus aureus ATCC 25923 after 24 hrs by micro broth dilution assay; conditions: ATCC 25923, 24 h
Escherichia coli = test: Antibacterial activity against Escherichia coli DH52 after 24 hrs by micro broth dilution assay; conditions: DH52, 24 h
Saccharomyces cerevisiae = test: Antifungal activity against Beer yeast ATCC 9763 after 24 hrs by micro broth dilution assay; conditions: ATCC 9763, 24 h
Candida = test: Antifungal activity against Candida mycoderma ATCC 9888 after 24 hrs by micro broth dilution assay; conditions: ATCC 9888, 24 h
Bacillus sp. = test: Antibacterial activity against Bacillus proteus ATCC 13315 after 24 hrs by micro broth dilution assay; conditions: Bacillus sp. (in: firmicutes), ATCC 13315, 24 h

SMILES	MIC (Micrococcus luteus) [µM]	MIC (Aspergillus flavus) [µM]	MIC (Bacillus spizizenii) [µM]	MIC (Cyberlindnera jadinii) [µM]	MIC (Staphylococcus aureus [1]) [µM]	MIC (Pseudomonas aeruginosa) [µM]	MIC (Candida albicans) [µM]	MIC [2] [µM]	MIC (Staphylococcus aureus [3]) [µM]	MIC (Escherichia coli) [µM]	MIC (Saccharomyces cerevisiae) [µM]	MIC (Candida) [µM]	MIC (Bacillus sp.) [µM]
CCn1cc(C(=O)O)c(=O)c2cc(F)c(N3CCNCC3)cc21 [NORFLOXACIN]	10 (≈ 3.19 µg/mL)	> 1600	10 (≈ 3.19 µg/mL)	> 1600	30 (≈ 9.58 µg/mL)	10 (≈ 3.19 µg/mL)	> 1600	10 (≈ 3.19 µg/mL)	10 (≈ 3.19 µg/mL)	50 (≈ 16 µg/mL)	> 1600	> 1600	10 (≈ 3.19 µg/mL)
O=c1c2ccc(Cl)cc2ncn1CCCCCBr	390 (≈ 129 µg/mL)	> 1550	1550 (≈ 511 µg/mL)	390 (≈ 129 µg/mL)	780 (≈ 257 µg/mL)	> 1550	> 1550	> 1550	> 1550	1550 (≈ 511 µg/mL)	780 (≈ 257 µg/mL)	> 1550	390 (≈ 129 µg/mL)
O=c1c2ccc(Cl)cc2ncn1CCn1cnc([N+](=O)[O-])c1	50 (≈ 16 µg/mL)	> 1600	50 (≈ 16 µg/mL)	400 (≈ 128 µg/mL)	200 (≈ 63.9 µg/mL)	> 1600	100 (≈ 32 µg/mL)	400 (≈ 128 µg/mL)	800 (≈ 256 µg/mL)	800 (≈ 256 µg/mL)	200 (≈ 63.9 µg/mL)	800 (≈ 256 µg/mL)	400 (≈ 128 µg/mL)
O=c1c2ccc(F)cc2ncn1CCn1cnc([N+](=O)[O-])c1	50 (≈ 15.2 µg/mL)	> 1690	50 (≈ 15.2 µg/mL)	420 (≈ 127 µg/mL)	210 (≈ 63.7 µg/mL)	> 1690	50 (≈ 15.2 µg/mL)	420 (≈ 127 µg/mL)	840 (≈ 255 µg/mL)	840 (≈ 255 µg/mL)	210 (≈ 63.7 µg/mL)	840 (≈ 255 µg/mL)	420 (≈ 127 µg/mL)
O=c1c2ccc(Cl)cc2ncn1CCCCCCCCCCBr	320 (≈ 128 µg/mL)	> 1280	1280 (≈ 512 µg/mL)	320 (≈ 128 µg/mL)	640 (≈ 256 µg/mL)	> 1280	> 1280	> 1280	> 1280	640 (≈ 256 µg/mL)	640 (≈ 256 µg/mL)	> 1280	320 (≈ 128 µg/mL)
O=c1c2ccc(F)cc2ncn1CCCCn1cnc([N+](=O)[O-])c1	50 (≈ 16.6 µg/mL)	770 (≈ 255 µg/mL)	50 (≈ 16.6 µg/mL)	390 (≈ 129 µg/mL)	190 (≈ 62.9 µg/mL)	770 (≈ 255 µg/mL)	100 (≈ 33.1 µg/mL)	390 (≈ 129 µg/mL)	390 (≈ 129 µg/mL)	770 (≈ 255 µg/mL)	100 (≈ 33.1 µg/mL)	770 (≈ 255 µg/mL)	390 (≈ 129 µg/mL)
O=c1c2ccc(Cl)cc2ncn1CCn1cncn1	30 (≈ 8.27 µg/mL)	930 (≈ 256 µg/mL)	460 (≈ 127 µg/mL)	460 (≈ 127 µg/mL)	460 (≈ 127 µg/mL)	30 (≈ 8.27 µg/mL)	930 (≈ 256 µg/mL)	930 (≈ 256 µg/mL)	930 (≈ 256 µg/mL)	230 (≈ 63.4 µg/mL)	460 (≈ 127 µg/mL)	460 (≈ 127 µg/mL)	930 (≈ 256 µg/mL)
O=c1c2ccc(F)cc2ncn1CCBr	470 (≈ 127 µg/mL)	1890 (≈ 512 µg/mL)	1890 (≈ 512 µg/mL)	940 (≈ 255 µg/mL)	940 (≈ 255 µg/mL)	> 1890	940 (≈ 255 µg/mL)	> 1890	> 1890	1890 (≈ 512 µg/mL)	940 (≈ 255 µg/mL)	> 1890	470 (≈ 127 µg/mL)
O=c1c2ccc(Cl)cc2ncn1CCn1ccnc1	470 (≈ 129 µg/mL)	930 (≈ 255 µg/mL)	> 1860	470 (≈ 129 µg/mL)	930 (≈ 255 µg/mL)	930 (≈ 255 µg/mL)	930 (≈ 255 µg/mL)	> 1860	> 1860	1860 (≈ 511 µg/mL)	930 (≈ 255 µg/mL)	> 1860	1860 (≈ 511 µg/mL)
Cc1ncc([N+](=O)[O-])n1CCCCCCCCCCn1cnc2cc(F)ccc2c1=O	40 (≈ 17.2 µg/mL)	40 (≈ 17.2 µg/mL)	20 (≈ 8.59 µg/mL)	20 (≈ 8.59 µg/mL)	20 (≈ 8.59 µg/mL)	> 1190	40 (≈ 17.2 µg/mL)	20 (≈ 8.59 µg/mL)	20 (≈ 8.59 µg/mL)	20 (≈ 8.59 µg/mL)	20 (≈ 8.59 µg/mL)	20 (≈ 8.59 µg/mL)	20 (≈ 8.59 µg/mL)
Cc1ncc([N+](=O)[O-])n1CCCCn1cnc2cc(Cl)ccc2c1=O	40 (≈ 14.5 µg/mL)	40 (≈ 14.5 µg/mL)	40 (≈ 14.5 µg/mL)	20 (≈ 7.24 µg/mL)	20 (≈ 7.24 µg/mL)	> 1420	20 (≈ 7.24 µg/mL)	20 (≈ 7.24 µg/mL)	40 (≈ 14.5 µg/mL)	40 (≈ 14.5 µg/mL)	40 (≈ 14.5 µg/mL)	40 (≈ 14.5 µg/mL)	20 (≈ 7.24 µg/mL)
O=c1c2ccc(F)cc2ncn1CCCCBr	860 (≈ 257 µg/mL)	1710 (≈ 512 µg/mL)	1710 (≈ 512 µg/mL)	430 (≈ 129 µg/mL)	430 (≈ 129 µg/mL)	> 1710	860 (≈ 257 µg/mL)	> 1710	> 1710	1710 (≈ 512 µg/mL)	860 (≈ 257 µg/mL)	> 1710	860 (≈ 257 µg/mL)
